ChEMBL document CHEMBL3407366, “Original 2-(3-alkoxy-1H-pyrazol-1-yl)pyrimidine derivatives as inhibitors of human dihydroorotate dehydrogenase (DHODH)” (J Med Chem, 2015)
≈ marks a conversion by molar mass, not a printed value. Calls of active or inactive are those of the source. The rule behind the calls is not given here.

system: Measles morbillivirus; test: Antiviral activity against measles virus expressing firefly luciferase rMV2/Luc infected in human HEK293 cells assessed as bioluminescence level at 16 to 195 nM after 6 mins by luminometry in presence of uridine; assay type: functional, organism-based; conditions: not given

SMILES	Activity
CCOc1nn(-c2ncc(CC)cn2)c(C)c1Cc1ccccc1	inactive

system: Measles morbillivirus; test: Antiviral activity against measles virus expressing firefly luciferase rMV2/Luc infected in human HEK293 cells assessed as bioluminescence level at 16 to 195 nM after 6 mins by luminometry in presence of orotic acid; assay type: functional, organism-based; conditions: not given

SMILES	Activity
CCOc1nn(-c2ncc(CC)cn2)c(C)c1Cc1ccccc1	inactive

system: HEK293; test: Cytotoxicity against human HEK293 cells assessed as cell viability after 24 hrs by CellTiter-Glo assay; assay type: cell-based; conditions: hek293, 24 h

SMILES	Activity
CCOc1nn(-c2ccc(C)cn2)c(C)c1Cc1ccccc1	Non-toxic
CCOc1nn(-c2ncccn2)c(C)c1Cc1ccccc1	Non-toxic

system: Measles morbillivirus; test: Antiviral activity against measles virus expressing firefly luciferase rMV2/Luc infected in human HEK293 cells assessed as bioluminescence level at 16 to 195 nM after 6 mins by luminometry in presence of dihydroorotic acid; assay type: functional, organism-based; conditions: not given

SMILES	Activity
CCOc1nn(-c2ncc(CC)cn2)c(C)c1Cc1ccccc1	Active

system: Measles morbillivirus; test: Antiviral activity against Measles virus expressing firefly luciferase rMV2/Luc infected in human HEK293 cells assessed as bioluminescence level after 6 mins by luminometry; assay type: functional; conditions: not given

SMILES	pMIC50
Cc1c(Oc2c(F)cccc2F)c(OC(C)C)nn1-c1ncccn1	5.6
CCc1cnc(-n2nc(OC(C)C)c(Oc3cccc(F)c3F)c2C)nc1	7.2
CCc1cnc(-n2nc(OCCCN(C)C)c(Cc3ccccc3)c2C)nc1	6.1
CCC(C)Oc1nn(-c2ncc(C3CC3)cn2)c(C)c1Cc1ccccc1 (centres undefined)	8.7
CCc1cnc(-n2nc(OC(C)C)c(Oc3ccc(F)cc3F)c2C)nc1	7.9
CCCc1cnc(-n2nc(OC(C)C)c(Oc3c(F)cccc3F)c2C)nc1	8.5
Cc1c(Oc2c(F)cccc2F)c(OC(C)C)nn1-c1ncc(C2CC2)cn1	8.9
Cc1cnc(-n2nc(OC(C)C)c(Oc3c(F)cccc3F)c2C)nc1	7.9
CCOc1nn(-c2ncc(CC)cn2)c(C)c1Cc1ccccc1	7.7
CCc1cnc(-n2nc(OC(C)C)c(Oc3ccccc3F)c2C)nc1	8.1
CCc1cnc(-n2nc(OC(C)C)c(Oc3c(F)cccc3F)c2C)nc1O	7.8
CCc1cnc(-n2nc(OCCOCc3ccccc3)c(Cc3ccccc3)c2C)nc1	7.3
COc1cnc(-n2nc(OC(C)C)c(Oc3c(F)cccc3F)c2C)nc1	7.3
CCOc1nn(-c2ncc(CC)cn2)c(C)c1Oc1cc(Cl)cc(Cl)c1	5.9
Cc1c(Cc2ccccc2)c(OC(C)C)nn1-c1ncc(C2CC2)cn1	8.2
CCC(CC)Oc1nn(-c2ncc(C3CC3)cn2)c(C)c1Cc1ccccc1	8.8
CCc1cnc(-n2nc(OCCO)c(Cc3ccccc3)c2C)nc1	6.6
CCOc1nn(-c2ncc(OC)cn2)c(C)c1Cc1ccccc1	6.2
CCOc1nn(-c2ncc(CC)cn2)c(C)c1C(=O)c1ccccc1	6.2
CCc1cnc(-n2nc(OC(C)C)c(Oc3c(F)cccc3F)c2C)nc1	9.1
CCOc1nn(-c2ncc(C3CC3)cn2)c(C)c1Cc1ccccc1	7.6
CCOc1nn(-c2ncc(CC)cn2)c(C)c1Oc1cc(Cl)ccc1Cl	7.6

SMILES	pMIC50
CCc1cnc(-n2nc(OC(C)C)c(Cc3cccc(F)c3)c2C)nc1	8.2
Cc1c(Cc2ccccc2)c(O)nn1-c1ncc(C2CC2)cn1	5.6
CCCc1cnc(-n2nc(OC(C)C)c(Oc3c(F)cccc3F)c2C)nc1O	7.2
COCc1c(Cc2ccccc2)c(OC(C)C)nn1-c1ncc(C2CC2)cn1	7.2
Cc1c(C(O)c2ccccc2)c(OC(C)C)nn1-c1ncc(C2CC2)cn1 (centres undefined)	8.8
CCc1cnc(-n2nc(O)c(Cc3ccccc3)c2C)nc1	6.3
CCOc1nn(-c2nccc(C)n2)c(C)c1Cc1ccccc1	6.1
CCOc1nn(-c2ncc(Br)cn2)c(C)c1Cc1ccccc1	7
CCOc1nn(-c2ncc(CC)cn2)c(C)c1Sc1ccccc1	6.9
CCOc1nn(-c2ncc(CC)cn2)c(C)c1Oc1ccc(C(F)(F)F)cc1	5.2
Cc1c(Cc2ccccc2F)c(OC(C)C)nn1-c1ncc(C2CC2)cn1	8.9
CCOc1nn(-c2ncc(CC)cn2)c(C)c1Oc1ccccc1	6.2
CCOc1nn(-c2ncc(CC)cn2)c(C)c1Oc1cccc(Cl)c1Cl	6.8
CCc1cnc(-n2nc(CC(C)C)c(Cc3ccccc3)c2C)nc1	7.5
CCOc1nn(-c2ncc(CC)cn2)c(C)c1Oc1ccccc1F	7.2
CCOc1nn(-c2ncc(CC)cn2)c(C)c1I	4.9
CCOc1nn(-c2ncc(CC)cn2)c(C)c1Oc1ccccc1C(F)(F)F	6.2
Cc1nn(-c2ncc(C3CC3)cn2)c(OC(C)C)c1Cc1ccccc1	6.8
CCc1cnc(-n2nc(OC(C)C)c(Oc3ccc(F)cc3)c2C)nc1	6.5
CCOc1nn(-c2ncc(CC)c(C)n2)c(C)c1Cc1ccccc1	7.4
CC(C)Oc1nn(-c2ncc(C3CC3)cn2)c(CN(C)C)c1Cc1ccccc1	<5
CCOc1nn(-c2ccc(C)cn2)c(C)c1Cc1ccccc1	6.2

SMILES	pMIC50
Cc1cnc(-n2nc(OC(C)C)c(Oc3c(F)cccc3F)c2C)nc1O	6.8
CCOc1nn(-c2ncc(CC)cn2)c(C)c1Oc1cccc(C(F)(F)F)c1	7.3
Cc1c(Oc2c(F)cccc2F)c(OC(C)C)nn1-c1ncc(F)cn1	6.6
CCc1cnc(-n2nc(OC(C)C)c(Oc3cc(F)ccc3F)c2C)nc1	7.3
CCOc1nn(-c2ncc(CC)cn2)c(C)c1-c1ccccc1	5.4
CCc1cnc(-n2nc(OC(C)C)c(Cc3ccccc3)c2C)nc1	8.4
CCOc1nn(-c2ncc(CC)cn2)c(C)c1Oc1ccccc1Br	6.9
CCOc1nn(-c2ncccn2)c(C)c1Cc1ccccc1	5.5
CCc1cnc(-n2nc(OC(C)C)c(Cc3ccccc3F)c2C)nc1	8.8
CCN(CC)Cc1c(Cc2ccccc2)c(OC(C)C)nn1-c1ncc(C2CC2)cn1	5.1
CCc1ccc(-n2nc(OC(C)C)c(Cc3ccccc3)c2C)cc1	6.2
CCCc1cnc(-n2nc(OCC)c(Cc3ccccc3)c2C)nc1	7.5
COc1nn(-c2ncc(C3CC3)cn2)c(C)c1Cc1ccccc1	7.3
CCOc1nn(-c2ncc(CC)cn2)c(C)c1Oc1ccccc1Cl	6.9
CCc1cnc(-n2nc(OC(C)C)c(Cc3ccc(F)cc3)c2C)nc1	7.4
C/C(O)=C(\C#N)C(=O)Nc1ccc(C(F)(F)F)cc1 [TERIFLUNOMIDE]	5.3
Cc1c(Oc2c(F)cccc2F)c(OC(C)C)nn1-c1ncc(Br)cn1	7.9
CCCCCc1cnc(-n2nc(OCC)c(Cc3ccccc3)c2C)nc1	<5
CCOc1nn(-c2ncc(C)cn2)c(C)c1Cc1ccccc1	7.5
Cc1c(Oc2c(F)cccc2F)c(OC(C)C)nn1-c1nccc(O)n1	<5
CCc1cnc(-n2nc(OC(C)C)c(Oc3cccc(F)c3)c2C)nc1	6.6

same assay, conditions: Measles morbillivirus, 0.1 h

SMILES	MIC50 [µM]
CCOc1nn(-c2ccc(C)cn2)c(C)c1Cc1ccccc1	0.65 (≈ 0.2 µg/mL)
CCOc1nn(-c2ncccn2)c(C)c1Cc1ccccc1	2.72 (≈ 0.801 µg/mL)

biological target: Dihydroorotate dehydrogenase (quinone), mitochondrial (Homo sapiens, UniProt Q02127); test: Inhibition of His-tagged human DHODH assessed as reduction of DCIP by spectrophotometry; conditions: not given
Sequence (Q02127 whole entry): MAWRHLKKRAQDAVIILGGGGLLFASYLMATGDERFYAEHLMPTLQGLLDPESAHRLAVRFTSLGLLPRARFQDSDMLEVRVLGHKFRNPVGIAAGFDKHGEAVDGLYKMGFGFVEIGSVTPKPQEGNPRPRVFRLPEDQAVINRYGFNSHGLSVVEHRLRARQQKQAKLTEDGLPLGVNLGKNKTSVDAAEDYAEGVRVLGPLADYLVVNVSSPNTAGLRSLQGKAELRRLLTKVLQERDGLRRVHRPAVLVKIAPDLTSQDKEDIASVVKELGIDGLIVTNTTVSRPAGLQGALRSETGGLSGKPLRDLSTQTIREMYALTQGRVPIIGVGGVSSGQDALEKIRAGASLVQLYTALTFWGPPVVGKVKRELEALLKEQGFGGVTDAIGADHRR

SMILES	IC50 [nM]
Cc1c(Cc2ccccc2F)c(OC(C)C)nn1-c1ncc(C2CC2)cn1	12.6
CCOc1nn(-c2ncc(CC)cn2)c(C)c1Oc1ccccc1Br	126
